Patent US20240174605A1, “ARYLSULFONAMIDES AS OREXIN RECEPTOR AGONISTS” (RESEARCH TRIANGLE INSTITUTE, priority 2021, published 2024)
In brackets after ≈: the same amount, converted by molar mass. Entries after “also recorded” stand apart in the source; their conditions may differ. Like-named read-outs stand apart in the source and are kept apart here.

Experiments:
[1] = biological target: T1, OX1R (Homo sapiens, UniProt O43613); test: OX1R calcium mobilization assay; type: cell-based; design: host or cells: CHO RD-HGA16 cells; details: for OX1/OX2: ratio of OX1 to OX2 potency value; for agonist potency at OX1R, in words: calcium mobilization
T1 sequence (O43613 1-425): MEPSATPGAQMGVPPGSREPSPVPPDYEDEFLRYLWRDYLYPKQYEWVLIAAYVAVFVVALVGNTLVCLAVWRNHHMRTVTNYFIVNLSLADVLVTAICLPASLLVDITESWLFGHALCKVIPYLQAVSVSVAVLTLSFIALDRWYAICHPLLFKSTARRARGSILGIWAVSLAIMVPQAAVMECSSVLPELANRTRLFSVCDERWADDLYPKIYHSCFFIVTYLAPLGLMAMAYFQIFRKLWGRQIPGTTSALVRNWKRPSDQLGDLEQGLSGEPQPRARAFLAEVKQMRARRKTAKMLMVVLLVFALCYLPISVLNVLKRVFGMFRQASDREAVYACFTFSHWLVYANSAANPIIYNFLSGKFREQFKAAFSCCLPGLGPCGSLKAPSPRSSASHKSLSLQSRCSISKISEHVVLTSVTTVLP
Protocol: (§1) Activity of the target compounds at the human OX1 and OX2 receptors was determined utilizing CHO RD-HGA16 cells (Molecular Devices) engineered to stably express either the human OX1 or the human OX2 receptor. Cells were maintained in Ham's F12 supplemented with 10% fetal bovine serum, 100 units of penicillin and streptomycin, and 100 μg/mL normocin™. To conduct the assay, cells were plated at 25,000 cells/well and incubated overnight at 37° C., 5% CO2. The next day, cells were washed with assay buffer and loaded with Calcium 5 dye (Molecular Devices). After 45 minutes, cells were pretreated with a 9% DMSO solution for 15 minutes.
(§2) All of the synthesized compounds were characterized for their agonist potencies in the calcium mobilization assays using CHO cells overexpressing either the OX1R or OX2R. Reference is made to German, N. A.; Decker, A. M.; Gilmour, B. P.; Thomas, B. F.; Zhang, Y., Truncated Orexin Peptides: Structure-Activity Relationship Studies.

[2] = biological target: T2, human OX2 receptor (Homo sapiens, UniProt O43614); test: OX2R calcium mobilization assay; type: cell-based; details: for agonist potency at OX2R, in words: calcium mobilization; for Emax: Table 10
T2 construct: host or cells: CHO RD-HGA16 cells
T2 sequence (O43614 1-444): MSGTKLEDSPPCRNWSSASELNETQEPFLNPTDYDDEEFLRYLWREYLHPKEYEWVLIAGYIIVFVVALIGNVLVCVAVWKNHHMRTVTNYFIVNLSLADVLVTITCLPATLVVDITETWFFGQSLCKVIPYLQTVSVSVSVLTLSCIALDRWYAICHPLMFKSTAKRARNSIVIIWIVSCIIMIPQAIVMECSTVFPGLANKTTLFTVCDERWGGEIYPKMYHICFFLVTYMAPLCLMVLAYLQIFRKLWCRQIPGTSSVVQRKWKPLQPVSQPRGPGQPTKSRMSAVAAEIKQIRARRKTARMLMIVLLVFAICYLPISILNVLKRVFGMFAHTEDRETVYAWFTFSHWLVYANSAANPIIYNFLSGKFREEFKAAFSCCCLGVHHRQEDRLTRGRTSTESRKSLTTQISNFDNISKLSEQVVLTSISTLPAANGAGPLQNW
Protocol: as §1, §2

[3] = Aqueous solubility at pH 2; type: physicochemical; details: aqueous medium at pH 2, pH 2, simulated gastric fluid
Description: (§3) The main structural difference is the pyridyl group connected to the sulfonamide in RTIOXA-47, as compared to the other 3 compounds. The replacement of a phenyl group with a pyridyl reduced the electron density of this aromatic ring.

[4] = Metabolic stability in rat liver microsomes (RLM); type: in vitro ADME; details: for metabolic stability in rat liver microsomes, in words: RLM; for half-life: rat, rat liver microsomes, read-out: t1/2 (RLM)
Description: as §3

[5] = biological target: both orexin receptors; details: literature (Turku et al. 2017); cited from earlier work
[6] = literature (Turku et al. 2017); cited from earlier work
[7] = biological target: T1, OX1R; details: literature; cited from earlier work
[8] = biological target: σ1 (Homo sapiens, UniProt Q99720); test: Target selectivity: σ1; type: binding
[9] = system: wild-type mice; details: 40 mg/kg i.p., salt form; cited from earlier work
[10] = Half-life in vivo; details: read-out: t1/2 (in vivo) (converted)
[11] = CHO RD-HGA16 cells expressing human OX2, calcium mobilization, read-out: EC50 (OX2)
[12] = CHO RD-HGA16 cells expressing human OX1, calcium mobilization, read-out: EC50 (OX1)

Sequence of σ1 (Q99720 whole entry): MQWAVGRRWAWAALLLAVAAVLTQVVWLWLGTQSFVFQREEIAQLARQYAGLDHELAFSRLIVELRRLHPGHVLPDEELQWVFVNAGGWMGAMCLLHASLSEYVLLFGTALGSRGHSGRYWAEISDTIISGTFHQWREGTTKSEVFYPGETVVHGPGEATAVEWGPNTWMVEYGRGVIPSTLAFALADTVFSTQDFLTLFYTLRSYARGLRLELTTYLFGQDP

COc1ccc(-c2cccc(C(=O)N(C)Cc3ccncc3)c2)cc1S(=O)(=O)Nc1cncc(OCCNC(=O)c2cccc(C)c2)c1 [Compound 55]
OX1/OX2 [1]: 1.52

COc1ccc(-c2cccc(C(=O)N(C)Cc3ccncc3)c2)cc1-c1nnc(Nc2cccc(NCCNC(=O)c3cccc(C)c3)c2)s1 [Compound 43]
agonist potency at OX2R, in words [2]: inactive | agonist potency at OX1R, in words [1]: inactive

COc1ccc(-c2cccc(C(=O)N(C)c3ccccn3)c2)cc1S(=O)(=O)Nc1cccc(NCCNC(=O)c2cccc(C)c2)c1 [Compound 33]
OX1/OX2 [1]: 4.69

COc1ccc(-c2cccc(C(=O)N(C)Cc3ccncc3)n2)cc1S(=O)(=O)Nc1cccc(NCCNC(=O)c2cccc(C)c2)c1 [Compound 59]
Emax [2]: 94% | solubility [3]: > 400 µM | metabolic stability in rat liver microsomes, in words [4]: modest metabolic stability | half-life [4]: 1.8 min | Emax ([1]; Table 10): 95%

COc1ccc(-c2cccc(C(=O)N(C)C)c2)cc1S(=O)(=O)Nc1cccc(N2CCN(C(=O)c3cccc(C)c3)CC2)c1 [Compound 18]
EC50 [2, 11]: > 10 µM | EC50 [1, 12]: > 10 µM

COc1ccc(-c2cccc(C(C)C)c2)cc1S(=O)(=O)Nc1cccc(NCCNC(=O)c2ccccc2N(C)C)c1 [Compound 6]
EC50 [2, 11]: > 10 µM | EC50 [1, 12]: > 10 µM

COc1ccc(-c2cccc(C(=O)N(C)Cc3ccncc3)c2)cc1-c1nnc(Nc2cccc(OCCNC(=O)c3cccc(C)c3)c2)s1 [Compound 44]
agonist potency at OX2R, in words [2]: inactive | agonist potency at OX1R, in words [1]: inactive

CCCNC(=O)c1cccc(-c2ccc(OC)c(S(=O)(=O)Nc3cccc(NCCNC(=O)c4ccccc4N(C)C)c3)c2)c1 [Compound 4]
EC50 [1, 12]: > 10 µM | OX1/OX2 [1]: >20

Cc1ccc(Cn2c(=N)n(CC(O)c3ccc(Cl)c(Cl)c3)c3ccccc32)cc1 (stereo not drawn) [Yan7874]
EC50 [5]: > 3.2 µM | cytotoxicity [6]: orexin receptor independent cytotoxicity

COc1ccc(-c2cccc(C(=O)N(C)Cc3ccncc3)c2)cc1S(=O)(=O)Nc1cncc(NCCNC(=O)CCC2CCCCC2)c1 [Compound 70]
OX1/OX2 [1]: 0.72

CCCN(CCC)c1cccc(-c2ccc(OC)c(S(=O)(=O)Nc3cccc(NCCNC(=O)c4ccccc4N(C)C)c3)c2)c1 [Compound 9]
EC50 [2, 11]: > 10 µM | EC50 [1, 12]: > 10 µM

COC(=O)N1CCC[C@H](NS(C)(=O)=O)[C@@H]1CO[C@H]1CC[C@@H](c2ccccc2)CC1 [TAK-925]
activity at OX1R, in words [7]: little to no activity

COc1ccc(-c2cccc(C(=O)NCCN(C)C)c2)cc1S(=O)(=O)Nc1cccc(NCCNC(=O)c2cccc(C)c2)c1 [Compound 32]
agonist potency at OX2R, in words [2]: sharp decrease of potency | agonist potency at OX1R, in words [1]: complete loss of potency | OX1/OX2 [1]: >10.0

CCCCC(=O)NCCNc1cncc(NS(=O)(=O)c2cc(-c3cccc(C(=O)N(C)Cc4ccncc4)c3)ccc2OC)c1 [Compound 66]
OX1/OX2 [1]: 0.33

COc1ccc(-c2cccc(C(=O)N(C)Cc3ccncc3)c2)cc1S(=O)(=O)Nc1cncc(NCCNC(=O)C(C)C)c1 [Compound 64]
OX1/OX2 [1]: 0.46

COc1ccc(-c2cccc(C(=O)N(C)C)c2)cc1C(=O)Nc1cccc(NCCNC(=O)c2cccc(C)c2)c1 [Compound 41]
agonist potency at OX1R, in words [1]: inactive

COc1ccc(-c2cccc(C(=O)N(C)C)c2)cc1S(=O)(=O)Nc1cccc(N2CCN(C(=O)c3ccccc3N(C)C)CC2)c1 [Compound 17]
EC50 [2, 11]: > 10 µM | EC50 [1, 12]: > 10 µM

COc1ccc(-c2cccc(C(C)(C)C)c2)cc1S(=O)(=O)Nc1cccc(NCCNC(=O)c2ccccc2N(C)C)c1 [Compound 10]
EC50 [2, 11]: > 10 µM | EC50 [1, 12]: > 10 µM

CCCC(=O)NCCNc1cncc(NS(=O)(=O)c2cc(-c3cccc(C(=O)N(C)Cc4ccncc4)c3)ccc2OC)c1 [Compound 65]
OX1/OX2 [1]: 0.60

COc1ccc(-c2cccc(C(=O)N3CCCC3)c2)cc1S(=O)(=O)Nc1cccc(NCCNC(=O)c2ccccc2N(C)C)c1 [Compound 3]
EC50 [2, 11]: 0.252 µM

COc1ccc(-c2cccc(N(C)C)c2)cc1S(=O)(=O)Nc1cccc(NCCNC(=O)c2ccccc2N(C)C)c1 [Compound 7]
EC50 [2, 11]: 2.13 µM | EC50 [1, 12]: > 10 µM | OX1/OX2 [1]: >20

COc1ccc(-c2cccc(C(=O)N(C)Cc3ccncc3)c2)cc1S(=O)(=O)Nc1cncc(NCCNC(=O)C2CCCCC2)c1 [Compound 68]
OX1/OX2 [1]: 0.44

COc1ccc(-c2cccc(C(=O)N(C)Cc3ccncc3)c2)cc1S(=O)(=O)Nc1cncc(NCCNC(=O)CC2CCCC2)c1 [Compound 69]
OX1/OX2 [1]: 0.57

COc1ccc(-c2cccc(C(=O)N(C)C)c2)cc1S(=O)(=O)Nc1cccc(NCCNC(=O)c2ccccc2N(C)C)c1 [Compound 1, reference compound]
Emax [2]: 94% | solubility [3]: > 400 µM | metabolic stability in rat liver microsomes, in words [4]: modest metabolic stability | half-life [4]: < 1 min | Ki [8]: 2.5 µM | body temperature [9]: without affecting body temperature | Emax ([1]; Table 10): 55%

CCN(CC)C(=O)c1cccc(-c2ccc(OC)c(S(=O)(=O)Nc3cccc(NCCNC(=O)c4ccccc4N(C)C)c3)c2)c1 [Compound 5]
EC50 [1, 12]: 0.737 µM | OX1/OX2 [1]: 3.32

CCCCCC(=O)NCCNc1cncc(NS(=O)(=O)c2cc(-c3cccc(C(=O)N(C)Cc4ccncc4)c3)ccc2OC)c1 [Compound 67]
EC50 [2]: 0.0997 µM | EC50 [1]: 0.0333 µM | OX1/OX2 [1]: 0.33

COc1ccc(-c2cccc(C(F)(F)F)c2)cc1S(=O)(=O)Nc1cccc(NCCNC(=O)c2ccccc2N(C)C)c1 [Compound 11]
EC50 [2, 11]: > 10 µM | EC50 [1, 12]: > 10 µM

COc1ccc(-c2cccc(C(=O)N(C)CCc3ccccn3)c2)cc1S(=O)(=O)Nc1cccc(NCCNC(=O)c2cccc(C)c2)c1 [Compound 39]
OX1/OX2 [1]: 2.78

CCC(=O)NCCNc1cncc(NS(=O)(=O)c2cc(-c3cccc(C(=O)N(C)Cc4ccncc4)c3)ccc2OC)c1 [Compound 63]
OX1/OX2 [1]: 0.48

COc1ccc(-c2cccc(C(=O)N(C)Cc3ccncc3)c2)cc1S(=O)(=O)Nc1cccc(NCCNC(=O)c2cccc(C)c2)c1 [Compound 38]
Emax [2]: 96% | agonist potency at OX2R, in words [2]: high and equal potency | solubility [3]: 313 µM (≈ 208 µg/mL) | metabolic stability in rat liver microsomes, in words [4]: modest metabolic stability | half-life [4]: 1.9 min | Emax ([1]; Table 10): 105% | EC50 ([1]; Table 10, read-out: OX1R EC50): 0.024 µM | agonist potency at OX1R, in words [1]: high and equal potency | OX1/OX2 [1]: 1.0

COc1ccc(-c2cccc(C(=O)N(C)Cc3ccncc3)c2)cc1S(=O)(=O)Nc1cncc(NCCNC(=O)c2cccc(C)c2)c1 [Compound 61]
Emax [2]: 99% | solubility [3]: > 400 µM | metabolic stability in rat liver microsomes, in words ([4]; listed as RTIOXA-47): significantly improved half-life; also recorded: significantly improved metabolic stability | half-life [4]: 39.7 min | half-life [10]: 318 min | Emax ([1]; Table 10): 101%

CCN(CC)c1cccc(-c2ccc(OC)c(S(=O)(=O)Nc3cccc(NCCNC(=O)c4ccccc4N(C)C)c3)c2)c1 [Compound 8]
EC50 [1, 12]: > 10 µM | OX1/OX2 [1]: >20

COc1ccc(-c2cccc(C(=O)NCc3ccccn3)c2)cc1S(=O)(=O)Nc1cccc(NCCNC(=O)c2cccc(C)c2)c1 [Compound 36]
agonist potency at OX1R, in words [1]: complete loss of the OX1R potency | OX1/OX2 [1]: >20.0
